Laboratory results reported in patent US8741955B2, “D-serine transporter inhibitors as pharmaceutical compositions for the treatment of central nervous system disorders” (Allergan, Inc., priority 2011, dated 2014).

Key:
human ASCT2 = target: T1, human ASCT2 (Homo sapiens, UniProt Q15758); test: transport into HEK cells expressing ASCT2; assay type: cell-based
T1 construct: expressed in transfected cells; host or cells: HEK (human embryonic kidney) cells
T1 sequence (Q15758 1-541): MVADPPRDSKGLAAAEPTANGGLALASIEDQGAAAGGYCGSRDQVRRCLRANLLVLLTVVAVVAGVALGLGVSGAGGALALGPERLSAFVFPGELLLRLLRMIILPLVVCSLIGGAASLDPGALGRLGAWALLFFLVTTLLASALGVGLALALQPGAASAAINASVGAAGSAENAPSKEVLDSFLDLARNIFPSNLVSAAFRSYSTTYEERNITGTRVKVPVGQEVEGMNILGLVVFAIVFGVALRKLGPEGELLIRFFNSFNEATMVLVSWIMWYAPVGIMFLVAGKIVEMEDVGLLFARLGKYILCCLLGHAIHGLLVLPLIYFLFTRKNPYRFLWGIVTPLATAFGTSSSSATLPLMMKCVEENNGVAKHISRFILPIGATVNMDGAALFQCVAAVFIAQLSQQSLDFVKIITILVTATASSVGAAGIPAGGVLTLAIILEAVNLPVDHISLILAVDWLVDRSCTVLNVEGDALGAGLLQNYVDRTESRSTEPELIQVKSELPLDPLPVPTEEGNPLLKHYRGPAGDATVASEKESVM
Procedure: Cell-based assays: the transport of [^3H]L- or D-serine was measured in primary cultures of rat hippocampal astrocytes or in human embryonic kidney (HEK) cells expressing ASCT transporter sub-types. For the astrocyte assays, cells were plated on either 24- or 96-well plates at a density of 50,000 cells per well. For the HEK assays, cells were plated on coated 96-well plates at a density of 80,000 cells/well. Assays were conducted in duplicate at room temperature in assay buffer consisting of: NaCl: 150 mM, KCl: 2 mM; MgCl2: 1 mM; CaCl2: 1 mM; HEPES: Tris buffer: 10 mM, pH7.4. To assess the sodium-dependence of transport, NaCl was replaced in the assay buffer by equimolar choline chloride. Following aspiration of growth medium and 2 washes with assay buffer, cells were incubated with [^3H]L- or D-serine at a final concentration of 1 μM for 5 min (astrocytes) or 1 min (HEK cells), after which the incubation medium was aspirated and the cells washed twice with ice-cold assay buffer. Cells containing radiolabel were solubilized in 100 μl of 1% Triton-X100 and an aliquot counted in a beta counter. IC50 values were determined over a range of at least 6 concentrations and derived from curve-fitting algorithms available in GraphPad Prism 4.

[1] = test system: NMDA receptor-mediated excitatory postsynaptic currents (EPSCNMDA); test: electrophysiological recording of NMDA receptor-mediated EPSCs in rat hippocampal slices
Procedure: […] thick hippocampal slices were prepared from […] rats using Leica VT1000S-microtome. Slices were perfused with ACSF containing: 121 mM NaCl, 2.5 mM KCl, 2.0 mM Mg2SO4, 2.0 CaCl2, 1 mM NaH2PO4, 26.2 NaHCO3, and 11 mM glucose, which was equilibrated with 5% CO2/95% O2. Experiments were performed in a recording chamber on the stage of an Olympus BX-61wi microscope with infrared DIC optics for visualizing whole-cell patch-clamp recordings. EPSPs were recorded from CA1 pyramidal neurons by stimulating the Schaffer collateral-commissural pathway using a bipolar tungsten electrode. The recording pipettes were filled with regular ICM containing: 120 mM Cs-gluconate, 5 mM NaCl, 10 mM KCl, 0.1 mM CaCl2, 1 mM EGTA, 2 mM MgCl2, 10 mM HEPES, 2 mM Na-ATP, 2 mM Na2-phosphocreatine, and 0.25 mM Na-GTP, pH 7.3 (290 mOsm).
To measure NMDA-mediated EPSCs, extracellular Mg2SO4 was lowered to 0.2 mM and 2 μM NBQX and 100 μM picrotoxin were added in the ACSF. 1 μM 7-CKY (7-chlorokynurenic acid) was added to improve the sensitivity of […] to D-serine.

| Structure (SMILES) | inhibition of [3H]L-serine transport in ASCT2-expressing HEK cells (human ASCT2) | percentage increase in the amplitude of EPSCNMDA ([1]; 1000 μM, in presence of 1 μM 7-CKY, representative experiment) [%] | duration of potentiation of EPSCNMDA ([1]; 1000 μM, representative experiment) | effect on NMDA receptor mediated EPSCs in CA1 region of the hippocampus ([1]; rat hippocampal slice) |
| --- | --- | --- | --- | --- |
| N[C@H](CO)C(=O)O [D-serine] | completely inhibited |  |  |  |
| N[C@H](C(=O)O)c1ccc(O)cc1 [L-4-hydroxyphenylglycine] |  | 22 | lasted for one hour and then returned to baseline in control buffer | potentiated NMDA receptor mediated excitatory post-synaptic currents |
